In ChEMBL document CHEMBL1132603:

Assays:
[1] = target: D(1A) dopamine receptor (Rattus norvegicus) (UniProt P18901); experiment: Inhibition of [3H]SCH-23390 binding to rat striatal membrane Dopamine receptor D1
[2] = target: D(2) dopamine receptor (Rattus norvegicus) (UniProt P61169); experiment: Affinity on C6 glioma cells transfected with Dopamine receptor D2L; assay type: cell-based
[3] = target: D(2) dopamine receptor (Rattus norvegicus) (UniProt P61169); experiment: Inhibition of [3H]spiperone binding to rat striatal membrane Dopamine receptor D2
[4] = target: D(3) dopamine receptor (Rattus norvegicus) (UniProt P19020); settings: C6
D(3) dopamine receptor (Rattus norvegicus), sequence (P19020 whole entry): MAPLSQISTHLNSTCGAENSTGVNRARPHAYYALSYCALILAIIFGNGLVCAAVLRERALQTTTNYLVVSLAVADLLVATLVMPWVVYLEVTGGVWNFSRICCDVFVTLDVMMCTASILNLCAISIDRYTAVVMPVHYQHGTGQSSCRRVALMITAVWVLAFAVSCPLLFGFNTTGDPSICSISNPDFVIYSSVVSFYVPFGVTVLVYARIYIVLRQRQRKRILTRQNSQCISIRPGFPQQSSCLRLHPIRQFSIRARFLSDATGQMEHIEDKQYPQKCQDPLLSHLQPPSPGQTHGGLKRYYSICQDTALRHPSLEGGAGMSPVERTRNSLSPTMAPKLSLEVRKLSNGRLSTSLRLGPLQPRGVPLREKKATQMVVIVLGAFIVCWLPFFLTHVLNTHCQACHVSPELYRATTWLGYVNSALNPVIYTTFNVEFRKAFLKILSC
Description: Affinity on C6 glioma cells transfected with Dopamine receptor D3

D(1A) dopamine receptor (Rattus norvegicus), sequence (P18901 whole entry): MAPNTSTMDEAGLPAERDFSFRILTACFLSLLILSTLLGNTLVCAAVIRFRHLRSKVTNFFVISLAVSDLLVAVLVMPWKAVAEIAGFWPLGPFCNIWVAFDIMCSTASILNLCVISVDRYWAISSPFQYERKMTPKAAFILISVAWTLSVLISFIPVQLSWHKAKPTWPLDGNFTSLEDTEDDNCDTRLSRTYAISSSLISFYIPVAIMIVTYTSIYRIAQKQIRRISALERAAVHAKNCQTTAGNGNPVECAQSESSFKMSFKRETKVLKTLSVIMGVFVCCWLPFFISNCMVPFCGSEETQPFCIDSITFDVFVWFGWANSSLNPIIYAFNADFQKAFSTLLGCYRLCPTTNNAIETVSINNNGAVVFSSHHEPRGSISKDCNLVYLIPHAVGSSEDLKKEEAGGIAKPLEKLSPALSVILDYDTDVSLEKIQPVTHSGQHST
D(2) dopamine receptor (Rattus norvegicus), sequence (P61169 whole entry): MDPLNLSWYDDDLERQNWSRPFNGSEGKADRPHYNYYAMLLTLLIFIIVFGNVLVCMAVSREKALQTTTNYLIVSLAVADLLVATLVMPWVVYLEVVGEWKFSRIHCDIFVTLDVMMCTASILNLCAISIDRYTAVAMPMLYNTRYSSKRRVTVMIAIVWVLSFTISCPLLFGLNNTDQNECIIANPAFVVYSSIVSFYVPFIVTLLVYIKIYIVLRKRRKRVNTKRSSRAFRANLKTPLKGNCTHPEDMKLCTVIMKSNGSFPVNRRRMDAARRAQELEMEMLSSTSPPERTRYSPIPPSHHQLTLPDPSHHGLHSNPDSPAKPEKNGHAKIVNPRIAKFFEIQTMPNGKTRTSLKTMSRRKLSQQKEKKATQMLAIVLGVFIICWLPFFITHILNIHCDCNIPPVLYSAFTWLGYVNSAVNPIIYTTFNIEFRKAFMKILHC

Row | SMILES | K 0.5 [1] | K 0.5 [2] | K 0.5 [3] | K 0.5 [4]
1 | CCCN1Cc2ccccc2[C@@H]2Cc3nc(N)ncc3C[C@H]21 | > 5 µM | > 5000 nM | 45 nM | 20.2 nM
2 | Oc1cc2c(cc1O)[C@H]1c3ccccc3CN[C@@H]1CC2 |  | 1490 nM |  | 170 nM
3 | CCCN1CCC[C@@H]2Cc3nc(N)ncc3C[C@H]21 | > 5 µM | 710 nM | 4.78 nM | 
4 | C=CCN1Cc2ccccc2[C@@H]2Cc3nc(N)ncc3C[C@H]21 | > 5 µM | > 5000 nM | 102 nM | 15.8 nM
5 | C=CCN1Cc2ccccc2[C@@H]2Cc3n[nH]cc3C[C@H]21 | > 5 µM | 1880 nM | 100 nM | 73.7 nM
6 | Nc1ncc2c(n1)C[C@H]1c3ccccc3CN[C@@H]1C2 | > 5 µM |  | 467 nM | 324 nM
7 | CN1CCc2cc(Cl)c(O)cc2[C@@H](c2ccccc2)C1 | 0.0004 µM |  |  | 
8 | CN1Cc2ccccc2[C@@H]2Cc3n[nH]cc3C[C@H]21 | > 5 µM | 3090 nM | 189 nM | 187 nM
9 | CCCN1Cc2ccccc2[C@@H]2Cc3n[nH]cc3C[C@H]21 | > 5 µM | 4300 nM | 209 nM | 162 nM
10 | Oc1ccc2c(c1O)Cc1cccc3c1[C@H]2CNC3 |  | 174 nM |  | 
11 | c1ccc2c(c1)CN[C@@H]1Cc3c[nH]nc3C[C@@H]21 | > 5 µM | > 5000 nM | 641 nM | 955 nM
12 | O=C(CCCN1CCC2(CC1)C(=O)NCN2c1ccccc1)c1ccc(F)cc1 |  | 0.16 nM | 0.21 nM | 
